Series [1] can be described thus: In vitro stability in human plasma at 37° C. (enantiomerization and D/H exchange, chiral LC/MS-MS, kinetic fit). Format: in vitro ADME. Particulars: for k, h+ → h− / k, h− → h+: enantiomerization rate constant, fit of the stability data of the protonated enantiomer. The protocol: The (+)-5-[(p-{[6-(4-amino-3,5-xylyloxy)-1-methyl-1,3-diaza-1H-inden-2-yl]methoxy}phenyl)methyl]-1,3-thiazolidine-2,4-dione, (−)-5-[(p-{[6-(4-amino-3,5-xylyloxy)-1-methyl-1,3-diaza-1H-inden-2-yl]methoxy}phenyl)methyl]-1,3-thiazolidine-2,4-dione, and rac-5-[(p-{[6-(4-amino-3,5-xylyloxy)-1-methyl-1,3-diaza-1H-inden-2-yl]methoxy}phenyl)methyl]-(5-^2H)-1,3-thiazolidine-2,4-dione were incubated in human plasma (K3EDTA as anticoagulant) at 37° C. in duplicates. […] It also contained ˜15% of the protonated enantiomers. Aliquots were removed at time=0, 5, 10, 15, 30 min, and 1, 2, 4, and 8 hours. Plasma proteins were precipitated by addition of acetonitrile containing cisapride as an internal standard (ISTD) and the supernatants were analyzed semi-quantitatively by LC/MS-MS with elution on a chiral column (Daicel ChiralPak IC-3) for the separation of enantiomers (isocratic method of 30:70 v/v 20 mM ammonium bicarbonate in water (pH=9.0) and acetonitrile). Peak areas for the deuterated enantiomers (+)-5-[(p-{[6-(4-amino-3,5-xylyloxy)-1-methyl-1,3-diaza-1H-inden-2-yl]methoxy}phenyl)methyl]-1,3-thiazolidine-2,4-dione and (−)-5-[(p-{[6-(4-amino-3,5-xylyloxy)-1-methyl-1,3-diaza-1H-inden-2-yl]methoxy}phenyl)methyl]-(5-^2H)-1,3-thiazolidine-2,4-dione were normalized to the ISTD and corrected for the isotopic peak of the corresponding protonated enantiomer, (+)-5-[(p-{[6-(4-amino-3,5-xylyloxy)-1-methyl-1,3-diaza-1H-inden-2-yl]methoxy}phenyl)methyl]-1,3-thiazolidine-2,4-dione and (−)-5-[(p-{[6-(4-amino-3,5-xylyloxy)-1-methyl-1,3-diaza-1H-inden-2-yl]methoxy}phenyl)methyl]-1,3-thiazolidine-2,4-dione, respectively, if present. Corrected data were analyzed and plotted using Microsoft Excel 2013 (Microsoft Corp, Redmond, Wash.) and the Excel Solver.
Scheme 1 illustrates possible reactions in a solution of a mixture of deuterated enantiomers when no degradation or side-reactions occur. The deuterium in both enantiomers, d+ and d−, can be lost by D/H exchange to give both protonated enantiomers, h+ and h− with rate constants kD++, kD+−, kD−+, kD−−, where D indicates D/H exchange, the first +/− represents the reagent, d+ or d−, and the second +/− stands for the product, h+ or h−. At the same time, the protonated enantiomers h+ and h− can exchange, with enantiomerization rate constants k+− and k−+.
Illustration of possible reactions and corresponding rate constants in a solution of rac-5-[(p-{[6-(4-amino-3,5-xylyloxy)-1-methyl-1,3-diaza-1H-inden-2-yl]methoxy}phenyl)methyl]-(5-^2H)-1,3-thiazolidine-2,4-dione where d+, d−, h+, h− stand for […] and (−)-5-[(p-{[6-(4-amino-3,5-xylyloxy)-1-methyl-1,3-diaza-1H-inden-2-yl]methoxy}phenyl)methyl]-(5-^2H)-1,3-thiazolidine-2,4-dione and (+)- and (−)-5-[(p-{[6-(4-amino-3,5-xylyloxy)-1-methyl-1,3-diaza-1H-inden-2-yl]methoxy}phenyl)methyl]-1,3-thiazolidine-2,4-dione, respectively.
Independent analyses of the data for h+ and h− were performed first and the average rate constants k+− and k−+ from these two fits were calculated and used as constants in the fitting of the stability data of the deuterated racemate. Calculated concentrations were obtained through numerical approximation of differential equations (1) and (2) for the stability studies of h+ and h− and equations (3) to (6) for the stability study of the enantiomeric mixture of deuterated d+ and d− by the Euler method (equation (7)). The step between calculated time points was minimized in order to minimize the local error (proportional to the square of the step size) and the global error (proportional to the step size). Data analysis was performed in Microsoft Excel 2013, using the Solver Generalized Reduced Gradient Nonlinear method with central derivatives to minimize the sum of sums of weighted Δ^2, square of difference between ISTD-normalized experimental data and calculated value, divided by the experimental data. […]

Series [2] addresses T1, peroxisome proliferator-activated receptor gamma (PPARγ) (Homo sapiens, UniProt P37231).
T1 construct: label (kind not specified); Cerep (France), contract assay
As to the kind of experiment: TRAP220 PPARγ coactivator recruitment assay (Cerep). The class given is biochemical. Particulars: for EC50: TRAP220 coactivator recruitment, percent of control (10 μM rosiglitazone), four-parameter fit, read-out: EC50, PPARγ agonist activity. The protocol: The agonist activity of (+)- and (−)-5-[(p-{[6-(4-amino-3,5-xylyloxy)-1-methyl-1,3-diaza-1H-inden-2-yl]methoxy}phenyl)methyl]-(5-^2H)-1,3-thiazolidine-2,4-dione at the peroxisome proliferator-activated receptor gamma (PPARγ) was evaluated in the thyroid receptor-associated protein complex, 220 kDa component (TRAP220) PPARγ coactivator recruitement assay performed at Cerep (France). Briefly, a mixture of labeled PPARγ and TRAP220 coactivator was pre-incubated with a fluorescence acceptor at room temperature for 30 minutes in the presence of a fluorescence acceptor and the test compound. A fluorescence donor was then added and the mixture was incubated for 120 minutes at room temperature. The fluorescence signal was measured and results expressed as a percent of control (10 μM rosiglitazone). A dose response curve was generated for each enantiomer and the experimental data was analyzed using the log(agonist) vs. response−variable slope (four parameters) nonlinear model in GraphPad Prism 6.0 (GraphPad Software, Inc., La Jolla, Calif.).

The mark [3] stands for this setting: D/H exchange rate constant, mixture of d− and d+ in human plasma at 37° C., fit to Equations 1 to 6.
Setting [4] is: average of enantiomerization rate constants obtained by fitting data for h− and h+, human plasma at 37° C.

Structures are written as SMILES.

T1 sequence (P37231 whole entry): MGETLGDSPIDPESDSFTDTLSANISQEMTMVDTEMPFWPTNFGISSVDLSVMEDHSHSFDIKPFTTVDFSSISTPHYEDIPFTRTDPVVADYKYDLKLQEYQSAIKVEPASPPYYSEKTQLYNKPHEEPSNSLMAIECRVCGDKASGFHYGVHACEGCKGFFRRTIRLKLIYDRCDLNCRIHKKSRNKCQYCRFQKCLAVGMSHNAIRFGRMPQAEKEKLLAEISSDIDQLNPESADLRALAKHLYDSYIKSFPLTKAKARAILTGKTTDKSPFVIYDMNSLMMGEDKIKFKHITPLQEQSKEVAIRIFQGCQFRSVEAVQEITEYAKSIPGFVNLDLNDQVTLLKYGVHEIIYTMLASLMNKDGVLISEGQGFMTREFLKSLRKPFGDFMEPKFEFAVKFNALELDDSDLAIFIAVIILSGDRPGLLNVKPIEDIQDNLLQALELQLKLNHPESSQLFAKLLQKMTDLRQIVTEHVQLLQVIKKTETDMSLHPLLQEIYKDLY
T1 sequence (Q15648 whole entry partner): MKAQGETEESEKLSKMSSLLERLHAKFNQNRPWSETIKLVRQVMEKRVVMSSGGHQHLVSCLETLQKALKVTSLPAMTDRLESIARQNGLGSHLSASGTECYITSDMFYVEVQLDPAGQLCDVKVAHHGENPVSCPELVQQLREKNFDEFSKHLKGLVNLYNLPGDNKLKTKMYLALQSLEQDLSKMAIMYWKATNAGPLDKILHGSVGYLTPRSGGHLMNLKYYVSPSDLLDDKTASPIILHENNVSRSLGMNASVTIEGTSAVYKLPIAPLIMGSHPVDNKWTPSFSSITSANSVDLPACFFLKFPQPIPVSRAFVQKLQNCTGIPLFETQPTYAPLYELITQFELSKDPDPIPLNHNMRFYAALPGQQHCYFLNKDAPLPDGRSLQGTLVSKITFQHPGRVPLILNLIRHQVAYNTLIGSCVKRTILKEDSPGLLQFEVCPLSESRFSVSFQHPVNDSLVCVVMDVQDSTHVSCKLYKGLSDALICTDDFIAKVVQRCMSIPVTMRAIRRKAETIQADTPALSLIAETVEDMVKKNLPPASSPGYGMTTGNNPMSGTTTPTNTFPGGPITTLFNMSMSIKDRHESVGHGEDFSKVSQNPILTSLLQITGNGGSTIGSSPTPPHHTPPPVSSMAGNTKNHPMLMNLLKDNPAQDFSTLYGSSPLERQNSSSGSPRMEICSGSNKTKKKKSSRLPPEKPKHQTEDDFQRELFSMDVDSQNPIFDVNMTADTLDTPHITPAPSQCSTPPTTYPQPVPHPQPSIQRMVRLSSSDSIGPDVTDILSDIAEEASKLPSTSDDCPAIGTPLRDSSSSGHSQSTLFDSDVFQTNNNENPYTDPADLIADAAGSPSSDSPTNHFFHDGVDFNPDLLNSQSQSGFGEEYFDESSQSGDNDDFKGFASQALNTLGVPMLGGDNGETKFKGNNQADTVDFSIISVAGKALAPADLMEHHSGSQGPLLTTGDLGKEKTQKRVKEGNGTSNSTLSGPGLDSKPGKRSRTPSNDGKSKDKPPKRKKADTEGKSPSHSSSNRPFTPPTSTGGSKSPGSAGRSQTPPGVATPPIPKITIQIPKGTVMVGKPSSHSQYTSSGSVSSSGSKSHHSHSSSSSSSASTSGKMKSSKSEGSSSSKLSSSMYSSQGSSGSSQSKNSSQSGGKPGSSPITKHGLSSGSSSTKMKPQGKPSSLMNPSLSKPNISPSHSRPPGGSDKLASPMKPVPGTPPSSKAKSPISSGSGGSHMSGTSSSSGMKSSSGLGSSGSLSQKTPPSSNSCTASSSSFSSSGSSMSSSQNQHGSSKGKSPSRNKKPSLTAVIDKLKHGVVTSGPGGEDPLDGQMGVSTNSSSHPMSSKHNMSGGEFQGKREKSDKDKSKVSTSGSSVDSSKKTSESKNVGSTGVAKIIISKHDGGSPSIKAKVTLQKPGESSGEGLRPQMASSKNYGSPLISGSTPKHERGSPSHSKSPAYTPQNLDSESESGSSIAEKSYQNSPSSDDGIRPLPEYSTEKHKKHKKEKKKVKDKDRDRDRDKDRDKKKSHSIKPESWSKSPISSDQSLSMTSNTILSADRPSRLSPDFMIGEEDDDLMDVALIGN

In the case of `[2H]C1(Cc2ccc(OCc3nc4ccc(Oc5cc(C)c(N)c(C)c5)cc4n3C)cc2)SC(=O)NC1=O` (single isomer, unassigned; (+)) [d+, (+)-5-[(p-{[6-(4-amino-3,5-xylyloxy)-1-methyl-1,3-diaza-1H-inden-2-yl]methoxy}phenyl)methyl]-(5-^2H)-1,3-thiazolidine-2,4-dione], the “stability of d+ relative to h+” value in series [1] (human plasma at 37° C.) was 2-3 fold. In series [2], the EC50 (in general, the concentration needed to bring the measured effect to its halfway point) amounted to 48.7 nM.

`[2H]C1(Cc2ccc(OCc3nc4ccc(Oc5cc(C)c(N)c(C)c5)cc4n3C)cc2)SC(=O)NC1=O` (racemic) [d−/d+, rac-5-[(p-{[6-(4-amino-3,5-xylyloxy)-1-methyl-1,3-diaza-1H-inden-2-yl]methoxy}phenyl)methyl]-(5-^2H)-1,3-thiazolidine-2,4-dione]: in series [1] (setting [3]), the “k, d+ → h+” value worked out at 0 h⁻¹; the “k, d+ → h−” value stood at 0.300 h⁻¹; the “k, d− → h+” value was 0.211 h⁻¹; the “k, d− → h−” value was determined as 0.499 h⁻¹. For the same compound, in series [1] (setting [4]), the “k, h+ → h− (average used in analysis of the deuterated mixture)” value was found to be 0.802 h⁻¹ and the “k, h− → h+ (average used in analysis of the deuterated mixture)” value is 0.668 h⁻¹.

As for `Cc1cc(Oc2ccc3nc(COc4ccc(CC5SC(=O)NC5=O)cc4)n(C)c3c2)cc(C)c1N` (single isomer, unassigned; (-)) [h−, (−)-5-[(p-{[6-(4-amino-3,5-xylyloxy)-1-methyl-1,3-diaza-1H-inden-2-yl]methoxy}phenyl)methyl]-1,3-thiazolidine-2,4-dione, reference compound], in series [1] (human plasma at 37° C.), the “k, h+ → h−” value worked out at 0.800 h⁻¹ and the “k, h− → h+” value amounted to 0.671 h⁻¹.

Turning to `[2H]C1(Cc2ccc(OCc3nc4ccc(Oc5cc(C)c(N)c(C)c5)cc4n3C)cc2)SC(=O)NC1=O` (single isomer, unassigned; (-)) [d−, (−)-5-[(p-{[6-(4-amino-3,5-xylyloxy)-1-methyl-1,3-diaza-1H-inden-2-yl]methoxy}phenyl)methyl]-(5-^2H)-1,3-thiazolidine-2,4-dione], the “stability of d− relative to h−” value in series [1] (human plasma at 37° C.) is listed as “not more stable than h−”. Further, the EC50 in series [2] came to 7.4 nM.

As for `Cc1cc(Oc2ccc3nc(COc4ccc(CC5SC(=O)NC5=O)cc4)n(C)c3c2)cc(C)c1N` (single isomer, unassigned; (+)) [d+, (+)-5-[(p-{[6-(4-amino-3,5-xylyloxy)-1-methyl-1,3-diaza-1H-inden-2-yl]methoxy}phenyl)methyl]-(5-^2H)-1,3-thiazolidine-2,4-dione], the “potency relative to the (−) enantiomer d− (fold less potent)” value in series [2] (ratio of EC50) was 7 fold.

Turning to `Cc1cc(Oc2ccc3nc(COc4ccc(CC5SC(=O)NC5=O)cc4)n(C)c3c2)cc(C)c1N` (single isomer, unassigned; (+)) [h+, (+)-5-[(p-{[6-(4-amino-3,5-xylyloxy)-1-methyl-1,3-diaza-1H-inden-2-yl]methoxy}phenyl)methyl]-1,3-thiazolidine-2,4-dione, reference compound], in series [1] (human plasma at 37° C.), the “k, h+ → h−” value is 0.803 h⁻¹ and the “k, h− → h+” value is 0.665 h⁻¹.

For the origin of these results see US20140221369A1, “5-DEUTERO-2,4-THIAZOLIDINEDIONE AND 5-DEUTERO-2,4-OXAZOLIDINEDIONE DERIVATIVES AND COMPOSITIONS COMPRISING AND METHODS OF USING THE SAME” (DeuteRx, LLC, priority 2013, published 2014).
